Data published in patent US20060276393A1, “Novel compositions for preventing and treating neurodegenerative and blood coagulation disorders” (Sirtris Pharmaceuticals, Inc., priority 2005, published 2006).

Tests used:
recombinant GST-Sir2 = recombinant GST-Sir2 (Saccharomyces cerevisiae, UniProt P06700); experiment: Sir2 deacetylation rate assay; format: biochemical, S. cerevisiae; conditions: in vitro dose-response
Protocol: Average lifespan for wild type, 22.9 generations, quercetin, 23.4; piceatannol.
His6-tagged recombinant SIRT1 and GST-tagged recombinant Sir2 were prepared as previously described^26. From 0.1 to 1 μg of SIRT1 and 1.5 μg of Sir2 were used per deacetylation assay (in 50 μl total reaction) as previously described^26. SIRT1 assays and certain of those for Sir2 employed the p53-382 acetylated substrate (° Fluor de Lys-SIRT1′, BIOMOL) rather than FdL.
Themed compound libraries (BIOMOL) were used for primary and secondary screening. Most polyphenol compounds were dissolved at 10 mM in dimethylsulfoxide (DMSO) on the day of the assay. For water soluble compounds and negative controls, 1% v/v DMSO was added to the assay. In vitro fluorescence assay results were read in white ½-volume 96-well microplates (Coming Costar 3693) with a CytoFluor™. II fluorescence plate reader (PerSeptive Biosystems, Ex. 360 nm, Em. 460 nm, gain=85). HeLa cells were grown and the cellular deacetylation assays were performed and read, as above, but in full-volume 96-well microplates (Coming Costar 3595). […] Calculation of net fluorescence increases included subtraction of a blank value, which in the case of Sir2 was obtained by omitting the enzyme from the reaction and in the case of SIRT1 by adding an inhibitor (200 μM suramin or 1 mM nicotinamide) to the reaction prior to the acetylated substrate. […]

S. cerevisiae = experiment: Yeast replicative lifespan; format: cell-based; conditions: for Average lifespan, growth on resveratrol: wild type untreated 21.0
[1] = test system: acetylated K382 of p53 in U2OS osteosarcoma cells; experiment: p53 Ac-K382 Western blot after UV radiation; format: cell-based, human
Protocol: FdL (200 μM) is added to growth media and cells incubated for 1-3 hours to allow FdL to enter the cells and the lysine-deacetylated product (deAc-FdL) to accumulate intracellularly. Cells are lysed with detergent in the presence of 1 μM TSA, 1 mM nicotinamide. […] Cells were grown adherently in DMEM/10% FCS and treated for 1 hour with 200 μM FdL, 1 μM TSA and either vehicle (0.5% final DMSO, Control) or 500 μM of the indicated compound. Intracellular accumulation of deAc-FdL was then determined as described briefly in a. […] Lysates were prepared and analyzed as above.

recombinant SIR-2.1 = molecular target: T1, recombinant SIR-2.1 (Caenorhabditis elegans, UniProt Q21921)
T1 sequence (Q21921 1-607): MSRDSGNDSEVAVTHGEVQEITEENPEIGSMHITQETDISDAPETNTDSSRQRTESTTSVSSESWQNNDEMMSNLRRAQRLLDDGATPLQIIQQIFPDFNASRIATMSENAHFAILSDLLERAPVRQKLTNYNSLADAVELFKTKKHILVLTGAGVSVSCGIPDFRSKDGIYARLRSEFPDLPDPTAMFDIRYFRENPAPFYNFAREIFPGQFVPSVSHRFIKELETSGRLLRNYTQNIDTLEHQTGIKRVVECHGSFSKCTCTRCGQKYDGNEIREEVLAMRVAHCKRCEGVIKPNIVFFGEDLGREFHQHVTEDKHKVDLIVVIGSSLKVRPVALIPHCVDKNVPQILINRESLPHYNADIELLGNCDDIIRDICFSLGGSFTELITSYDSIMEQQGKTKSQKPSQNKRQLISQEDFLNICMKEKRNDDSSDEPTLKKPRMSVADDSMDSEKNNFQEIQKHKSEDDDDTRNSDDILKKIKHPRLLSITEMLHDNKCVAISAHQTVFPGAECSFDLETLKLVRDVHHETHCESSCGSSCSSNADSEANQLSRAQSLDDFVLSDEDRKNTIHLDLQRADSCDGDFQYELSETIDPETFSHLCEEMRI
Protocol: STACs were dissolved at 10 mM in dimethylsulfoxide (DMSO) the day of the assay. […] Drosophila S2 cells were grown in Schneider media with fetal calf serum at 23-28° C., seeded at 9×10^4 cells/well, grown overnight and then exposed to 1 μM TSA, 500 μM polyphenols, and 200 μM FdL for 2 hr. Deacetylation of FdL with lysate from whole cells was determined as described^4. Unless otherwise indicated all initial rate measurements were means of three or more replicates obtained with single incubation times, at which point 5% or less of the substrate initially present was deacetylated.

Chain of recombinant GST-Sir2 (P06700 whole entry): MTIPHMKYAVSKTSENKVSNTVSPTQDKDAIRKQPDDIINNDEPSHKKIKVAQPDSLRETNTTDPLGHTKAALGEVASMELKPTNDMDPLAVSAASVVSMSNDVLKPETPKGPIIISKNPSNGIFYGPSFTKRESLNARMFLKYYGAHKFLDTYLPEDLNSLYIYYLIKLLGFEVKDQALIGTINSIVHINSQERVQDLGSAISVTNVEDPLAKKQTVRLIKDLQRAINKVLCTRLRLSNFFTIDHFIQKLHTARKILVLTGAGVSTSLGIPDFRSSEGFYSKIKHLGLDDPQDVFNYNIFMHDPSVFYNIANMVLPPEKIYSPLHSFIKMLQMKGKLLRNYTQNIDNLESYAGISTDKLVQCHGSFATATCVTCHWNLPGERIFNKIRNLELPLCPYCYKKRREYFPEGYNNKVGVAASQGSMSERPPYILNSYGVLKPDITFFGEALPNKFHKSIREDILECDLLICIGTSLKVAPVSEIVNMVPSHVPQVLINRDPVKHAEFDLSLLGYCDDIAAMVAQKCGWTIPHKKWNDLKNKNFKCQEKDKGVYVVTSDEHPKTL

In the case of `Oc1ccc(/C=C/c2cc(O)cc(O)c2)cc1` [Resveratrol, 3,5,4′-Trihydroxy-trans-stilbene], the “concentrations at which inhibition of Sir2 was seen” value (recombinant GST-Sir2) is reported as over 100 µM, the “optimum concentration of activator for Sir2 stimulation” value (recombinant GST-Sir2) is reported as 2 to 5 µM and the “increase of average lifespan” value (S. cerevisiae; 10 μM) is reported as 70%. For the same compound, the “maximum lifespan (in words)” value (S. cerevisiae; 10 μM) was “significantly increased maximum lifespan”, the Average lifespan (S. cerevisiae; 10 μM compound, 2% glucose medium, wild type untreated 22.9) was 36.8 generations and the “Average lifespan, growth on resveratrol” value (S. cerevisiae; 10 μM) was 35.7 generations. The “Average lifespan, growth on resveratrol” value (S. cerevisiae; 100 μM) was 29.4 generations, the “Average lifespan, growth on resveratrol” value (S. cerevisiae; 500 μM) was 29.3 generations and the “Average lifespan, glucose-restricted+resveratrol (CR+R)” value (S. cerevisiae; glucose restriction) was 39.9 generations. For the same compound, the “Average lifespan, pnc1Δ+resveratrol” value (S. cerevisiae; pnc1Δ untreated 19.2) was 33.1 generations, the “Average lifespan, sir2Δ+resveratrol” value (S. cerevisiae; sir2Δ untreated 9.9) was 10.0 generations and the “Average lifespan, wild type+resveratrol (wt+R)” value (S. cerevisiae; wild type untreated 19.0) was 37.8 generations. For the same compound, the “level of Ac-K382 of p53” value ([1]; 0.5 μM resveratrol, 4 hours pre-treatment, UV) was “marked decrease in the level of Ac-K382”, the “level of Ac-K382 of p53” value ([1]; >50 μM resveratrol) was “the effect was reversed” and the “Km of SIR-2.1 for the co-substrate NAD+” value (recombinant SIR-2.1; 100 μM resveratrol, 10 μM Fluor de Lys) was “lowered the Km of SIR-2.1”. For the same compound, the “stimulated deacetylation (maximum)” value (recombinant SIR-2.1; dose-dependent, Fluor de Lys) was “up to 2.5 fold”.
